Measured values: the supplement of paper PMC10307832

How the values were obtained:
Experiment in all cases: relative viability (nuclei count vs DMSO), 5 days (fraction); higher = more cells survive
Vemurafenib + Tozasertib = compound: CCCS(=O)(=O)Nc1ccc(F)c(C(=O)c2c[nH]c3ncc(-c4ccc(Cl)cc4)cc23)c1F [Vemurafenib] + Cc1cc(Nc2cc(N3CCN(C)CC3)nc(Sc3ccc(NC(=O)C4CC4)cc3)n2)n[nH]1 [Tozasertib] (partner 0.1 µM)
Procedure, shortened: (§1)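 The day after seeding in 1536-well plates, lung cancer cell lines were treated by pin tool with a single drug, or with a fixed anchor-drug dose together with five library-drug doses (not always all listed) in √10 steps. After 5 days, a combined fix-and-stain solution (final 0.05% Triton X-100, 1% formaldehyde, 1 ug/ml Hoechst) was added. Nuclei counted on 4× images gave relative viability as treated counts over vehicle counts, reported as the median of duplicate plates.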

Vemurafenib + Decitabine = compound: CCCS(=O)(=O)Nc1ccc(F)c(C(=O)c2c[nH]c3ncc(-c4ccc(Cl)cc4)cc23)c1F [Vemurafenib] + Nc1ncn([C@H]2C[C@H](O)[C@@H](CO)O2)c(=O)n1 [Decitabine] (partner 2 µM)
Procedure, shortened: as §1

Vemurafenib + Navitoclax = compound: CCCS(=O)(=O)Nc1ccc(F)c(C(=O)c2c[nH]c3ncc(-c4ccc(Cl)cc4)cc23)c1F [Vemurafenib] + CC1(C)CCC(c2ccc(Cl)cc2)=C(CN2CCN(c3ccc(C(=O)NS(=O)(=O)c4ccc(N[C@H](CCN5CCOCC5)CSc5ccccc5)c(S(=O)(=O)C(F)(F)F)c4)cc3)CC2)C1 [Navitoclax] (partner 0.5 µM)
Procedure, shortened: as §1

Vemurafenib + Luminespib = compound: CCCS(=O)(=O)Nc1ccc(F)c(C(=O)c2c[nH]c3ncc(-c4ccc(Cl)cc4)cc23)c1F [Vemurafenib] + CCNC(=O)c1noc(-c2cc(C(C)C)c(O)cc2O)c1-c1ccc(CN2CCOCC2)cc1 [Luminespib] (partner 0.01 µM)
Procedure, shortened: as §1

Vemurafenib + Foretinib = compound: CCCS(=O)(=O)Nc1ccc(F)c(C(=O)c2c[nH]c3ncc(-c4ccc(Cl)cc4)cc23)c1F [Vemurafenib] + COc1cc2c(Oc3ccc(NC(=O)C4(C(=O)Nc5ccc(F)cc5)CC4)cc3F)ccnc2cc1OCCCN1CCOCC1 [Foretinib] (partner 0.25 µM)
Procedure, shortened: as §1

UMC-11
relative viability (Vemurafenib + Tozasertib; first compound 0.03162 µM): 0.217
relative viability (Vemurafenib + Tozasertib; first compound 0.1 µM): 0.216
relative viability (Vemurafenib + Tozasertib; first compound 0.3162 µM): 0.199
relative viability (Vemurafenib + Tozasertib; first compound 1 µM): 0.212
relative viability (Vemurafenib + Decitabine; first compound 0.03162 µM): 0.568
relative viability (Vemurafenib + Decitabine; first compound 0.1 µM): 0.595
relative viability (Vemurafenib + Decitabine; first compound 1 µM): 0.545
relative viability (Vemurafenib + Navitoclax; first compound 0.03162 µM): 0.336
relative viability (Vemurafenib + Navitoclax; first compound 0.1 µM): 0.327
relative viability (Vemurafenib + Navitoclax; first compound 0.3162 µM): 0.374
relative viability (Vemurafenib + Navitoclax; first compound 1 µM): 0.319
relative viability (Vemurafenib + Luminespib; first compound 0.03162 µM): 0.916
relative viability (Vemurafenib + Luminespib; first compound 0.1 µM): 0.991
relative viability (Vemurafenib + Luminespib; first compound 0.3162 µM): 0.984
relative viability (Vemurafenib + Luminespib; first compound 1 µM): 0.941
relative viability (Vemurafenib + Foretinib; first compound 0.03162 µM): 1.02
relative viability (Vemurafenib + Foretinib; first compound 0.1 µM): 1
relative viability (Vemurafenib + Foretinib; first compound 0.3162 µM): 1.15
relative viability (Vemurafenib + Foretinib; first compound 1 µM): 0.923
